From ChEMBL document CHEMBL4396942, “19-Hydroxyeicosatetraenoic acid analogs: Antagonism of 20-hydroxyeicosatetraenoic acid-induced vascular sensitization and hypertension” (Bioorg Med Chem Lett, 2019)
Active and inactive are the calls of the source. The rule behind the calls is not given here.

Assays:
[1] = test system: Mus musculus; assay: Reversal of androgen-driven 20-HETE-induced hypertension in Cyp4a14(-/-) mouse assessed as reduction in systolic blood pressure at 10 mg/kg, ip daily and measured for 10 days; assay type: functional, organism-based
[2] = species: Rattus norvegicus; assay: Vasodilating activity in rat gracilis muscle arteriole assessed as inhibition of 20-HETE induced change in internal diameter; assay type: functional
[3] = species: Rattus norvegicus; assay: Vasodilating activity in rat gracilis muscle arteriole assessed as change in internal diameter; assay type: functional
[4] = Vasodilating activity in rat renal preglomerular microvessels assessed as effect on 20-HETE induced sensitization toward phenylephrine at 1 uM relative to 20-HETE; assay type: functional
[5] = Solubility of compound in water; assay type: physicochemical

Compound	fold change (FC) [4]	other results
C[C@@H](O)CCC/C=C\CCCCCCC/C=C\CCCC(=O)N[C@@H](CC(=O)O)C(=O)O	–	Activity [1]: Active; Activity [2]: Dose-dependent effect; Activity [3]: inactive
CC(O)CCC/C=C\CCCCCCC/C=C\CCCc1nnn[nH]1 (centres undefined)	-0.78	–
C[C@@H](O)CCC/C=C\CCCCCCC/C=C\CCCC(=O)[O-].[Na+]	-0.85	solubility [5]: 250 µg/mL
O=C([O-])CCC/C=C\CCCCCCC/C=C\CCCCO.[Na+]	-0.68	–
C[C@H](O)CCC/C=C\CCCCCCC/C=C\CCCC(=O)[O-].[Na+]	-0.68	solubility [5]: 250 µg/mL
[N-]=[N+]=N[C@H](CO)CCC/C=C\CCCCCCC/C=C\CCCC(=O)[O-].[Na+]	0.16	–
CC(O)CCCCCCCCCCCC/C=C\CCCC(=O)[O-].[Na+] (centres undefined)	-0.66	–
C[C@H](O)CCC/C=C\CCCCCCC/C=C\CCCC(=O)NCC(=O)[O-].[Na+]	–	solubility [5]: 500 µg/mL
C[C@@H](O)CCC/C=C\CCCCCCC/C=C\CCCC(=O)NCC(=O)[O-].[Na+]	-4.47	solubility [5]: 500 µg/mL
O=C([O-])CNC(=O)CCC/C=C\CCCCCCC/C=C\CCCCO.[Na+]	-0.74	–
CC(O)CCCC/C=C\CCCCCCC/C=C\CCCC(=O)NCC(=O)[O-].[Na+] (centres undefined)	0.58	–
CC(O)CCC/C=C\CCCCCCCCCCCCC(=O)[O-].[Na+] (centres undefined)	-0.79	–
[N-]=[N+]=N[C@@H](CO)CCC/C=C\CCCCCCC/C=C\CCCC(=O)[O-].[Na+]	0.5	–
C[C@H](O)CCC/C=C\CCCCCCC/C=C\CCCC(=O)N[C@@H](CC(=O)[O-])C(=O)[O-].[Na+].[Na+]	-0.59	–
